The values that follow come from patent US20220312767A1, “PYRIDAZINE COMPOUNDS AND HERBICIDES” (Nippon Soda Co., Ltd., priority 2019, published 2022).

For data set [1], the system named is Digitaria ciliaris. Briefly: Soil treatment test (Test Example 2). Format: in vivo. As to conditions: four weeks after. How it is done: (§1) A test emulsion was prepared by the same method as that in Test example 1.
(§2) 70 cm^2 pots were filled with soil, and then seeds of Digitaria ciliaris and Amaranthus retroflexus were sown on the surface layer of each of the pots, respectively, followed by lightly covering with soil. On the next day, the above-mentioned test emulsion was diluted to obtain a predetermined active ingredient amount, and then was sprayed onto the soil surface at a spray volume of 2860 L per hectare using a small sprayer.
(§3) Four weeks after, the fresh grass mass at an aerial part on an untreated area or a treated area was measured per weed, and the herbicidal ratio was calculated by the following calculation formula.
(§4) Herbicidal ratio (%)=(the fresh grass mass at an aerial part on untreated area−the fresh grass mass at an aerial part on treated area)/(the fresh grass mass at an aerial part on untreated area)×100
(§5) The compounds A-1 and A-4 were sprayed at a spray amount of 63 g or 31 g per hectare, respectively.
(§6) In addition, the following compounds (A) to (C) disclosed in Patent Document 1 were sprayed in a similar manner.

Data set [2] deals with Amaranthus retroflexus. Briefly: Soil treatment test (Test Example 2). The data set is classed as in vivo. Particulars: four weeks after. How it is done: as §1, §2, §3, §4, §5, §6
The test system of data set [3] is Digitaria ciliaris. In words: Foliage treatment test (Test Example 1), foliage spray. As to conditions: 250 g per hectare, three weeks after, fresh grass mass of aerial part vs untreated. The data set is classed as in vivo. Here is the method: (§7) POA allylphenyl ether (4.1 parts by mass), POE-POP glycol (1 part by mass), POE sorbitanlaurate (0.8 parts by mass), glycerin (2.6 parts by mass), dimethylformamide (65.9 parts by mass), N-methylpyrolidone (5.1 parts by mass), cyclohexanone (15.4 parts by mass), and aromatic hydrocarbon (5.1 parts by mass) were mixed and dissolved to prepare an emulsion. The compound according to the present invention (4 mg) was dissolved in the emulsion (100 μL) to prepare a test emulsion. The term “POA” means “polyoxyalkylene”, the term “POE” means “polyoxyethylene”, and the term “POP” means “polyoxypropylene”.
(§8) 150 cm^2 pots were filled with soil, and then seeds of Avena sativa, Matricaria chamomilla, Setaria faberi, Digitaria ciliaris, Abutilon theophrasti and Amaranthus retroflexus were sown on the surface layer of each of the pots, respectively, followed by lightly covering with soil. Then, the seeds were grown in a greenhouse. When each plant was grown to obtain a grass height of 2 cm to 4 cm, the above-mentioned test emulsion diluted to obtain a predetermined active ingredient amount was sprayed onto the leaves and stems at a spray volume of 250 L per hectare using a small sprayer.
(§9) Three weeks after, the fresh grass mass at an aerial part on an untreated area or a treated area was measured per weed, and the herbicidal ratio was calculated by the following calculation formula.
as §4

In data set [4] the test system is Matricaria chamomilla. The description is as above. Format: in vivo. Particulars: 250 g per hectare, three weeks after, fresh grass mass of aerial part vs untreated. How it is done: as §7, §8, §9, §4
Data set [5] relates to Avena sativa. Described as above. The data set is classed as in vivo. As to conditions: 250 g per hectare, three weeks after, fresh grass mass of aerial part vs untreated. How it is done:
as §7, §8, §9, §4

Data set [6] has as its system Setaria faberi. Described as above. The data set is classed as in vivo. As to conditions: 250 g per hectare, three weeks after, fresh grass mass of aerial part vs untreated. How it is done: as §7, §8, §9, §4
Data set [7] relates to Amaranthus retroflexus. Described as above. The data set is classed as in vivo. Particulars: 250 g per hectare, three weeks after, fresh grass mass of aerial part vs untreated. Here is the method:
as §7, §8, §9, §4

For the compound `Cn1ncc(-c2ccc(C(F)(F)F)cc2S(C)(=O)=O)c(O)c1=O` [(A)], the “Herbicidal ratio Digitaria ciliaris” value in data set [1] (spray amount 31 g/ha) and in data set [1] (spray amount 63 g/ha) was 0% throughout. In addition, the “Herbicidal ratio Amaranthus retroflexus” value in data set [2] (spray amount 31 g/ha) and in data set [2] (spray amount 63 g/ha) was 0% throughout.

As to `CC(=O)Oc1c(-c2ccc(C(F)(F)F)cc2S(C)(=O)=O)cnn(C)c1=O` [(B)], the “Herbicidal ratio Digitaria ciliaris” value in data set [1] (spray amount 31 g/ha) is recorded as 0%; in data set [1] (spray amount 63 g/ha) it was 30%. Also, the “Herbicidal ratio Amaranthus retroflexus” value in data set [2] (spray amount 31 g/ha) and in data set [2] (spray amount 63 g/ha) was 0% each time.

Take `Cc1ccc(S(=O)(=O)Oc2c(-c3ccc(C(F)(F)F)cc3S(C)(=O)=O)cnn(C)c2=O)cc1` [(C)]: the “Herbicidal ratio Digitaria ciliaris” value in data set [1] (spray amount 31 g/ha) is on record as 40%; in data set [1] (spray amount 63 g/ha), 70%. Further, the “Herbicidal ratio Amaranthus retroflexus” value in data set [2] (spray amount 31 g/ha) and in data set [2] (spray amount 63 g/ha) was 0% in each case.

As to `CC(OC(=O)C(C)C)Oc1c(-c2ccc(C(F)(F)F)cc2S(C)(=O)=O)cnn(C)c1=O` (stereo not shown) [Compound A-1], in data set [3], the “Herbicidal ratio against Digitaria ciliaris” value worked out at 100%. In addition, in data set [4], the “Herbicidal ratio against Matricaria chamomilla” value was found to be 100%. The “Herbicidal ratio against Avena sativa” value in data set [5] is 100%. The “Herbicidal ratio against Setaria faberi” value in data set [6] was 100%. In addition, the “Herbicidal ratio against Amaranthus retroflexus” value in data set [7] was 100%. In addition, the “Herbicidal ratio Digitaria ciliaris” value in data set [1] (spray amount 31 g/ha) and in data set [1] (spray amount 63 g/ha) was 100% throughout. For the same compound, the “Herbicidal ratio Amaranthus retroflexus” value in data set [2] (spray amount 31 g/ha) and in data set [2] (spray amount 63 g/ha) was 100% throughout.

Take `COC(=O)OC(C)Oc1c(-c2ccc(S(C)(=O)=O)cc2Cl)cnn(C)c1=O` (stereo not shown) [Compound A-2]: the “Herbicidal ratio against Matricaria chamomilla” value in data set [4] is 100%. Further, the “Herbicidal ratio against Avena sativa” value in data set [5] came out at 100%.

As for `COC(=O)OCOc1c(-c2ccc(C(F)(F)F)cc2S(C)(=O)=O)cnn(C)c1=O` [Compound A-3], the “Herbicidal ratio against Digitaria ciliaris” value in data set [3] turned out to be 100%. In addition, the “Herbicidal ratio against Matricaria chamomilla” value in data set [4] was determined as 100%. For the same compound, the “Herbicidal ratio against Avena sativa” value in data set [5] is reported as 100%. Besides, the “Herbicidal ratio against Setaria faberi” value in data set [6] is reported as 100%. In addition, the “Herbicidal ratio against Amaranthus retroflexus” value in data set [7] is listed as 100%.

As usually defined, the melting point is the temperature, or range, at which the solid turns liquid. In turn, `COC(=O)OC(C)Oc1c(-c2ccc(C(F)(F)F)cc2S(C)(=O)=O)cnn(C)c1=O` (stereo not shown) [Compound A-4, methyl (1-((2-methyl-5-(2-(methylsulfonyl)-4-(trifluoromethyl)phenyl)-3-oxo-2,3-dihydropyridazin-4-yl)oxy)ethyl) carbonate] showed a melting point of 173 to 176 °C. Further, the “Herbicidal ratio against Digitaria ciliaris” value in data set [3] came out at 100%. Besides, the “Herbicidal ratio against Matricaria chamomilla” value in data set [4] is on record as 100%. For the same compound, in data set [5], the “Herbicidal ratio against Avena sativa” value worked out at 100%. The “Herbicidal ratio against Amaranthus retroflexus” value in data set [7] turned out to be 100%. The “Herbicidal ratio Digitaria ciliaris” value in data set [1] (spray amount 63 g/ha) was 100%. Also, in data set [2] (spray amount 63 g/ha), the “Herbicidal ratio Amaranthus retroflexus” value is 100%.

On to `CC(C)C(=O)OCOc1c(-c2ccc(C(F)(F)F)cc2S(C)(=O)=O)cnn(C)c1=O` [Compound A-5], for which the “Herbicidal ratio against Digitaria ciliaris” value in data set [3] worked out at 100%. In addition, in data set [4], the “Herbicidal ratio against Matricaria chamomilla” value came out at 100%. Further, in data set [5], the “Herbicidal ratio against Avena sativa” value is on record as 100%. Besides, the “Herbicidal ratio against Setaria faberi” value in data set [6] is 100%. For the same compound, the “Herbicidal ratio against Amaranthus retroflexus” value in data set [7] amounted to 100%.

Take `COC(=O)OC(C)Oc1c(-c2ccc(S(C)(=O)=O)c(C3=NOCC3)c2Cl)cnn(C)c1=O` (stereo not shown) [Compound A-7]: the “Herbicidal ratio against Digitaria ciliaris” value in data set [3] was determined as 100%. The “Herbicidal ratio against Matricaria chamomilla” value in data set [4] was 100%. For the same compound, the “Herbicidal ratio against Avena sativa” value in data set [5] is 100%. The “Herbicidal ratio against Setaria faberi” value in data set [6] is 100%. For the same compound, the “Herbicidal ratio against Amaranthus retroflexus” value in data set [7] is given as 100%.

Turning to `COCCOc1c(S(C)(=O)=O)ccc(-c2cnn(C)c(=O)c2OC(C)OC(=O)OC)c1Cl` (stereo not shown) [Compound A-8], in data set [3], the “Herbicidal ratio against Digitaria ciliaris” value was found to be 100%. Besides, the “Herbicidal ratio against Matricaria chamomilla” value in data set [4] turned out to be 100%. In addition, in data set [7], the “Herbicidal ratio against Amaranthus retroflexus” value is given as 100%.

As to `COC(=O)OC(C)Oc1c(-c2ccc(C(F)(F)F)c(NC(=O)C3CC3)c2C)cnn(C)c1=O` (stereo not shown) [Compound A-9], the “Herbicidal ratio against Matricaria chamomilla” value in data set [4] worked out at 100%. Moreover, the “Herbicidal ratio against Avena sativa” value in data set [5] was 100%. Also, the “Herbicidal ratio against Setaria faberi” value in data set [6] is 100%. Also, the “Herbicidal ratio against Amaranthus retroflexus” value in data set [7] came out at 100%.
